Measurements as given in patent US8986696B2, “Trans-capsular administration of p38 map kinase inhibitors into orthopedic joints” (DePuy Mitek, Inc., priority 2007, dated 2015).

Legend:
[1] = test system: IL-1β-stimulated GAG release, bovine chondrocyte pellets / ARC tissues; experiment: chondrocyte pellet culture model: GAG degradation; type: cell-based
Text: (§1) Calf articular cartilage was obtained from the knee joints of eight to twelve month old animals and was processed within twenty-four hours after sacrifice. After removal of muscle and ligament, the cartilage was kept moist using phosphate buffer solution (PBS) to prevent tissue dehydration, and was aseptically peeled off from subchondral bone with a scalpel, and the cartilage pieces were further minced into smaller pieces (˜0.3-0.5×˜0.2-0.5 cm cubes). […] Chondrocytes were then enzymatically isolated from the tissue by incubation for overnight at 37° C. with gentle agitation in 0.2% collagenase in Dulbecco's modified eagle media (DMEM). After removal of tissue debris by filtration through cell strainer and the residual collagenase by 3× wash in PBS, cells were finally resuspended at a density of 2.5×10^6 cells/ml in chondrocyte medium. A 1 ml aliquot of the cell suspension was dispensed into either a 15 ml Falcon centrifuge tube or a 96 deep-well plate and centrifuged at 2000×g for five minutes. The chondrocyte pellets were incubated at 37° C. in a humidified atmosphere of 5% CO2 for two to three weeks with a medium change every other day.
(§2) As an alternative to using calf articular cartilage, a commercial Alginate Recovered Chondrocytes (ARC) system was also used (Articular Engineering, LLC (Northbrook, Ill.)). Use of the commercial system cut down on labor and time in producing chondrocyte pellet. This system produced cartilaginous tissue in vitro using bovine chondrocytes. The first step consisted of culturing chondrocytes in alginate under conditions optimal for the formation of a cell-associated matrix (CM). The second step allowed these cells with their CM, after recovery, to rapidly form and become integrated into a solid mass of cartilage on a porous insert within two weeks. This tissue is rich in cells surrounded by a cell-associated matrix that is degraded rapidly when the cells are exposed to IL-1. ARC tissues in 3 mm punches at delivery were first dispensed into a 96 deep-well plate, one punch per well, for compound treatment. The subsequent procedures were the same as those used for the chondrocyte pellets.
(§3) Chondrocyte pellets were washed once with 1 ml of Chondrocyte Stimulation Medium and equilibrated in the same medium at room temperature for fifteen to thirty minutes. Compounds were dissolved in H2O, Ethanol or dimethyl sulfoxide (DMSO) (10^−2 M) according to suppliers' instructions and further diluted with Chondrocyte Stimulation Medium to the required concentrations. DMSO concentrations in the culture media should not exceed 1%; this concentration of DMSO has no effect on cartilage proteoglycan metabolism in response to cytokines.
[…] At the end of the incubation, media and pellets were harvested and frozen for further analysis. Pellets were also fixed as needed in 4% (w/v) paraformaldehyde in PBS for histology analysis.
Glycosaminoglycan (GAG) levels in the culture media were determined by measuring the amount of polyanionic material reacting with 1,9-dimethylmethylene blue (DME) as detected by absorbance at 525 nm, using shark chondroitin sulfate as a standard. The DME blue dye-binding solution was prepared by dissolving 16 mg of DME blue in a solution containing 0.304% glycine, 0.23% sodium chloride (NaCl), 9.5 mM hydrochloric acid (HCl), pH=3.0 with absorbance at 525 equal to 0.31. Proteoglycans and proteoglycan metabolites in chondrocyte pellet were released by digesting the pellet with 125 μg/ml of papain in 0.1 M PBS, pH 6.0, 5 mM cysteine, 5 mM ethylene-diamine-tetra-acetic acid disodium salt (Na2EDTA) at 50° C. for overnight. Results are reported as either micrograms of GAG per milliliter or percent of total GAG released into culture medium.

chondrocytes = type: cell-based; conditions: bovine, 100000 nM
Text: as §1, §2, §3
The pellets were first treated with compounds at desired concentrations at 37° C. for one hour and then incubated for three to five days in the absence or presence of 10 ng/ml of IL-1β. At the end of the incubation, media and pellets were harvested and frozen for further analysis. Pellets were also fixed as needed in 4% (w/v) paraformaldehyde in PBS for histology analysis.
The LDH activity was determined colorimetrically in an enzymatic test based on the conversion of lactic acid to pyruvate in the presence of chromagenic substrate tetrazolium salt INT that was reduced to formazan.

[2] = test system: rabbit anterior cruciate ligament transection (ACLT) model of osteoarthritis; experiment: ACLT model, SCIO-469 (Example VIII); type: in vivo
Experimental: The formulation of the highest concentration was diluted into the lower concentrations using ORTHOVISC®. Once prepared, the formulations were stored at 4° C. The study design consisted of an n=12 per group. The SCIO-469 (SD 469) was suspended in ORTHOVISC®. A total of 160 μl was injected at each administration. The intra-articular injections were performed according to the ACLT model. However, control groups either received no injections or received the ORTHOVISC® vehicle delivered once weekly for three weeks. Euthanasia was performed according to the ACLT model. However, the animals were euthanized nine weeks post ACLT with an intravenous injection of pentobarbital (60 mg/kg). […] At the time of sacrifice the following parameters were evaluated grossly (the scale follows in parenthesis): Each parameter was given a score. The combination of all parameters gave a Total Score (0-52). […] Lastly, an All Cartilage Effects Score was obtained. The score for All Cartilage Effects ranges from 0 to 40. The grades that compose this parameter are trochlear groove thickness and erosion, all the grades in All Condylar Effects, and all grades listed under tibial plateau. A higher score indicates more damage to the joint. A lower score indicates less damage or more cartilage preservation to the joint. Individual results for each parameter assessed were tabulated (data not shown).

[3] = drug content in the joints (Example VIII); type: in vivo, rabbit; conditions: at the time of analysis
Text: For each treatment group, four animals were included to provide pharmacokinetic data (available drug levels in blood and tissue). Prior to treatment administration, blood samples were collected and frozen for analysis. After gross observation, the joints were removed and frozen for analysis.

Compound: C[C@@H]1CN(Cc2ccc(F)cc2)[C@@H](C)CN1C(=O)c1cc2c(C(=O)C(=O)N(C)C)cn(C)c2cc1Cl [SCIO-469 (SD 469)]
- inhibition of GAG degradation ([1]; ARC tissues stimulated with IL-1β): no effect
- GAG Release ([1]; Pellet Assay): No effect
- increase of LDH level (chondrocytes): 121%
- All Cartilage Effects (0-40), mean ([2]; 0.5 μg/kg): 12.75
- All Condylar Effects (0-18), mean ([2]; 0.5 μg/kg): 6.45
- All Tibial Plateau Effects (0-24), mean ([2]; 0.5 μg/kg): 7.20
- All Trochlear Groove Effects (0-10), mean ([2]; 0.5 μg/kg): 8.40
- Femoral Condyle % Surface Area Erosion (Lateral), mean score ([2]; 0.5 μg/kg): 2.80
- Femoral Condyle % Surface Area Erosion (Medial), mean score ([2]; 0.5 μg/kg): 0.90
- Femoral Condyle Depth of Erosion (Lateral), mean score ([2]; 0.5 μg/kg): 2.00
- Femoral Condyle Depth of Erosion (Medial), mean score ([2]; 0.5 μg/kg): 0.55
- Femoral Condyle Presence of Clefts, mean score ([2]; 0.5 μg/kg): 0.20
- Tibial Plateau # of Osteophytes (Lateral), mean score ([2]; 0.5 μg/kg): 1.50
- Tibial Plateau # of Osteophytes (Medial), mean score ([2]; 0.5 μg/kg): 1.80
- Tibial Plateau % Surface Area Erosion (Lateral), mean score ([2]; 0.5 μg/kg): 2.00
- Tibial Plateau % Surface Area Erosion (Medial), mean score ([2]; 0.5 μg/kg): 0
- Tibial Plateau Depth of Erosion (Lateral), mean score ([2]; 0.5 μg/kg): 1.90
- Tibial Plateau Depth of Erosion (Medial), mean score ([2]; 0.5 μg/kg): 0
- Tibial Plateau Presence of Clefts (Lateral), mean score ([2]; 0.5 μg/kg): 0
- Tibial Plateau Presence of Clefts (Medial), mean score ([2]; 0.5 μg/kg): 0
- Total Score (0-52), mean ([2]; 0.5 μg/kg): 22.05
- Trochlear Groove # of Osteophytes, mean score ([2]; 0.5 μg/kg): 3.00
- Trochlear Groove Erosion of Cartilage, mean score ([2]; 0.5 μg/kg): 2.40
- Trochlear Groove Osteophyte Size, mean score ([2]; 0.5 μg/kg): 3.00
- Trochlear Groove Thickening, mean score ([2]; 0.5 μg/kg): 0
- All Cartilage Effects (0-40), mean ([2]; 5 μg/kg): 13.17
- All Condylar Effects (0-18), mean ([2]; 5 μg/kg): 6.50
- All Tibial Plateau Effects (0-24), mean ([2]; 5 μg/kg): 7.08
- All Trochlear Groove Effects (0-10), mean ([2]; 5 μg/kg): 8.08
- Femoral Condyle % Surface Area Erosion (Lateral), mean score ([2]; 5 μg/kg): 1.67
- Femoral Condyle % Surface Area Erosion (Medial), mean score ([2]; 5 μg/kg): 1.67
- Femoral Condyle Depth of Erosion (Lateral), mean score ([2]; 5 μg/kg): 1.96
- Femoral Condyle Depth of Erosion (Medial), mean score ([2]; 5 μg/kg): 1.21
- Femoral Condyle Presence of Clefts, mean score ([2]; 5 μg/kg): 0
- Tibial Plateau # of Osteophytes (Lateral), mean score ([2]; 5 μg/kg): 1.08
- Tibial Plateau # of Osteophytes (Medial), mean score ([2]; 5 μg/kg): 1.67
- Tibial Plateau % Surface Area Erosion (Lateral), mean score ([2]; 5 μg/kg): 1.50
- Tibial Plateau % Surface Area Erosion (Medial), mean score ([2]; 5 μg/kg): 0.58
- Tibial Plateau Depth of Erosion (Lateral), mean score ([2]; 5 μg/kg): 1.63
- Tibial Plateau Depth of Erosion (Medial), mean score ([2]; 5 μg/kg): 0.63
- Tibial Plateau Presence of Clefts (Lateral), mean score ([2]; 5 μg/kg): 0
- Tibial Plateau Presence of Clefts (Medial), mean score ([2]; 5 μg/kg): 0
- Total Score (0-52), mean ([2]; 5 μg/kg): 21.67
- Trochlear Groove # of Osteophytes, mean score ([2]; 5 μg/kg): 2.83
- Trochlear Groove Erosion of Cartilage, mean score ([2]; 5 μg/kg): 2.17
- Trochlear Groove Osteophyte Size, mean score ([2]; 5 μg/kg): 2.92
- Trochlear Groove Thickening, mean score ([2]; 5 μg/kg): 0.17
- All Cartilage Effects (0-40), mean ([2]; 50 μg/kg): 8.32
- All Condylar Effects (0-18), mean ([2]; 50 μg/kg): 4.18
- All Tibial Plateau Effects (0-24), mean ([2]; 50 μg/kg): 5.41
- All Trochlear Groove Effects (0-10), mean ([2]; 50 μg/kg): 6.91
- Femoral Condyle % Surface Area Erosion (Lateral), mean score ([2]; 50 μg/kg): 1.18
- Femoral Condyle % Surface Area Erosion (Medial), mean score ([2]; 50 μg/kg): 1.27
- Femoral Condyle Depth of Erosion (Lateral), mean score ([2]; 50 μg/kg): 1.05
- Femoral Condyle Depth of Erosion (Medial), mean score ([2]; 50 μg/kg): 0.68
- Femoral Condyle Presence of Clefts, mean score ([2]; 50 μg/kg): 0
- Tibial Plateau # of Osteophytes (Lateral), mean score ([2]; 50 μg/kg): 0.91
- Tibial Plateau # of Osteophytes (Medial), mean score ([2]; 50 μg/kg): 1.73
- Tibial Plateau % Surface Area Erosion (Lateral), mean score ([2]; 50 μg/kg): 1.09
- Tibial Plateau % Surface Area Erosion (Medial), mean score ([2]; 50 μg/kg): 0.36
- Tibial Plateau Depth of Erosion (Lateral), mean score ([2]; 50 μg/kg): 1.14
- Tibial Plateau Depth of Erosion (Medial), mean score ([2]; 50 μg/kg): 0.18
- Tibial Plateau Presence of Clefts (Lateral), mean score ([2]; 50 μg/kg): 0
- Tibial Plateau Presence of Clefts (Medial), mean score ([2]; 50 μg/kg): 0
- Total Score (0-52), mean ([2]; 50 μg/kg): 16.50
- Trochlear Groove # of Osteophytes, mean score ([2]; 50 μg/kg): 2.64
- Trochlear Groove Erosion of Cartilage, mean score ([2]; 50 μg/kg): 1.36
- Trochlear Groove Osteophyte Size, mean score ([2]; 50 μg/kg): 2.91
- Trochlear Groove Thickening, mean score ([2]; 50 μg/kg): 0
- utility in ACLT model, gross observations ([2]; 0.5, 5 or 50 μg/kg, direct injection into a diseased joint): did not demonstrate the utility
- drug content in the joints [3]: no drug could be detected
